From ChEMBL document CHEMBL2029209, “Structure-based design of 2,6,7-trisubstituted-7H-pyrrolo[2,3-d]pyrimidines as Aurora kinases inhibitors” (Bioorg Med Chem Lett, 2012) come the findings set out here.

Test [1] deals with T1, Aurora kinase A (Homo sapiens, UniProt O14965).
T1 sequence (O14965 whole entry): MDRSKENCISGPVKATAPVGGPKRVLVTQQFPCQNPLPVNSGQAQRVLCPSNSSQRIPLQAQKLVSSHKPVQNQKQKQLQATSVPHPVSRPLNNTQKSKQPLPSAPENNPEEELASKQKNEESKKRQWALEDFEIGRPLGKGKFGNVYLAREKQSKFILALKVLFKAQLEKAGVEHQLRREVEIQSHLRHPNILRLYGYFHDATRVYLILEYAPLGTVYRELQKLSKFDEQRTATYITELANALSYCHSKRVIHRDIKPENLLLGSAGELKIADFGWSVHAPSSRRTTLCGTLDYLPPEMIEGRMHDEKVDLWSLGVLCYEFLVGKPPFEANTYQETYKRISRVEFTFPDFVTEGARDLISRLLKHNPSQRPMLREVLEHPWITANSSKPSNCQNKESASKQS
Briefly: Inhibition of aurora A kinase.

Test [2] relates to HCT-116. Nature of the test: Induction of cell cycle arrest in human HCT116 cells assessed as minimum concentration required for G2/M versus G1 peak ratio over 2. The format is functional.
Test [3] concerns the target Aurora kinase B (Homo sapiens, UniProt Q96GD4). Nature of the test: Inhibition of aurora B kinase.
For test [4], the system named is HCT-116. Nature of the test: Antiproliferative activity against human HCT116 cells. The class given is functional, cell-based.
The target in test [5] is Cyclin-dependent kinase 1 (Homo sapiens, UniProt P06493). Nature of the test: Inhibition of CDK1.

SMILES strings stand for the structures. pIC50: −log10 of the molar value.

Sequence of Aurora kinase B (Q96GD4 whole entry): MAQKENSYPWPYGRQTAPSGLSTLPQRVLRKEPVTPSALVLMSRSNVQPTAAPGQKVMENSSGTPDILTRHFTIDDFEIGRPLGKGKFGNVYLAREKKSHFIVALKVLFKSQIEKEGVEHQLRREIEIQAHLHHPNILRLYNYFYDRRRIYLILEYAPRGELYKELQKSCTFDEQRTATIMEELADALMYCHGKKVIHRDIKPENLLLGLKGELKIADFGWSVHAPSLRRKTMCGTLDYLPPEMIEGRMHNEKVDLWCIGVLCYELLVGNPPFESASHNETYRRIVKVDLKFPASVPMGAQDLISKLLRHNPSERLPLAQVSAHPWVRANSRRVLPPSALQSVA
Sequence of Cyclin-dependent kinase 1 (P06493 whole entry): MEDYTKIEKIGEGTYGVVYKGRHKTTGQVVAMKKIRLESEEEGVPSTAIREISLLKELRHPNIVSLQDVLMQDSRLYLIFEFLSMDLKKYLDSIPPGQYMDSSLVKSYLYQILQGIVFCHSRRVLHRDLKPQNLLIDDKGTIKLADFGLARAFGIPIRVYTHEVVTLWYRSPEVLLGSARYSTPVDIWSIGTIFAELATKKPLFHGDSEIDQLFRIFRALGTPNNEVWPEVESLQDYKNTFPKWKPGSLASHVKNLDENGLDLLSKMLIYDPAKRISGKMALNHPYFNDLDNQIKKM

One may read the pIC50 as the negative decadic logarithm of the IC50, by convention in mol/L. In the case of `CC(C)CCn1cc(-c2cc3cnc(Nc4cc(C(=O)N5CCN(C)CC5)n(C)c4)nc3n2C2CCCC2)cn1`, the pIC50 was 8.70 in test [1], 8.40 in test [3], 6.96 in test [4] and 5.85 in test [5]. For the same molecule, the Activity in test [2] came to 0.1 µM.
For `CNCc1cc2cnc(Nc3cc(C(=O)N4CCN(C)CC4)n(C)c3)nc2n1C1CCCC1`, the pIC50 in test [1] was 7.40; in test [3], 7.22; in test [4], 6.68; in test [5], 6.15. Further, the Activity in test [2] turned out to be 0.3 µM.
The like results for `Cc1c(-c2cc3cnc(Nc4cc(C(=O)N5CCN(C)CC5)n(C)c4)nc3n2C2CCCC2)cnn1C` were, in that order, 8.70, 8.40, 6.96, 6.48 and 0.03 µM.
With `CN1CCN(C(=O)c2cc(Nc3ncc4cc(C(N)=O)n(C5CCCC5)c4n3)cn2C)CC1`, in test [2], the Activity was 0.1 µM. Besides, the negative-log IC50 (pIC50) was 7.96 in test [3], 7.15 in test [4] and 6.30 in test [5].
As to `CN1CCN(C(=O)c2cc(Nc3ncc4cc(-c5cnco5)n(C5CCCC5)c4n3)cn2C)CC1`, the pIC50 was 8.70 in test [1], 8.40 in test [3], 7.22 in test [4] and 7.55 in test [5]. The Activity in test [2] stood at 0.03 µM.
Turning to `CN1CCN(C(=O)c2cc(Nc3ncc4cc(-c5ccnn5C)n(C5CCCC5)c4n3)cn2C)CC1`, the Activity in test [2] was 1 µM. For the same molecule, the results for the pIC50 in test [3], in test [4] and in test [5] were 8.40, 6.23 and 5.77, respectively.
With `CN1CCN(C(=O)c2cc(Nc3ncc4cc(-c5cnn(C)c5)n(C5CCCC5)c4n3)cn2C)CC1`, the values for the pIC50 in test [1], in test [3] and in test [5] were 8.70, 8.40 and 6.74, respectively. Also, the Activity in test [2] is 0.03 µM.
`CN1CCN(C(=O)c2cc(Nc3ncc4ccn(C5CCCC5)c4n3)cn2C)CC1`: the pIC50 in test [1] is 7.42; in test [3] it was 7.74; in test [4], 6.54; in test [5], 6.62. For the same molecule, the Activity in test [2] is 0.3 µM.
With `CN1CCN(C(=O)c2cc(Nc3ncc4cc(CO)n(C5CCCC5)c4n3)cn2C)CC1`, the pIC50 is 7.70 in test [1], 7.40 in test [3], 6.89 in test [4] and 5.89 in test [5]. The Activity in test [2] was 0.1 µM.
For the molecule `CC(O)c1cc2cnc(Nc3cc(C(=O)N4CCN(C)CC4)n(C)c3)nc2n1C1CCCC1` (configuration not stated), the pIC50 in test [1] was 7.96; in test [3], 7.52; in test [4], 7.10; in test [5], 5.96. Further, in test [2], the Activity was found to be 0.1 µM.
The corresponding values for `CN1CCN(C(=O)c2cc(Nc3ncc4cc(C(=O)O)n(C5CCCC5)c4n3)cn2C)CC1` are 6.46, 6.00, 4.91, 5.00 and 10 µM.
The corresponding values for `CN1CCN(C(=O)c2cc(Nc3ncc4cc(-c5cncn5C)n(C5CCCC5)c4n3)cn2C)CC1` are 8.70, 8.30, 8.30, 6.70 and 0.003 µM.
On to `CN1CCN(C(=O)c2cc(Nc3ncc4cc(/C=N/O)n(C5CCCC5)c4n3)cn2C)CC1`, for which the pIC50 in test [1] is 7.96; in test [3], 7.52; in test [4], 8.40; in test [5], 8.52. For the same molecule, the Activity in test [2] turned out to be 0.002 µM.
The corresponding values for `CN1CCN(C(=O)c2cc(Nc3ncc4cc(C#N)n(C5CCCC5)c4n3)cn2C)CC1` are 8.12, 8.40, 7.40, 8.22 and 0.065 µM.
For the molecule `CN1CCN(C(=O)c2cc(Nc3ncc4cc(-c5cnn(Cc6ccccc6)c5)n(C5CCCC5)c4n3)cn2C)CC1`, the pIC50 was 8.70 in test [1], 8.40 in test [3], 7.05 in test [4] and 5.70 in test [5]. The Activity in test [2] is 0.1 µM.
